Data reported in US11472799B2, “Serine threonine kinase (AKT) degradation / disruption compounds and methods of use” (Icahn School of Medicine at Mount Sinai, priority 2018, dated 2022).
“Also recorded” adds a separate entry of the source.

Assays:
AKT [1] = assay: Time course Western blot of AKT degradation in BT474 cells; assay type: cell-based, human; settings: for time point for the most significant AKT degradation: BT474 cells (FIGS. 2 and 5); for time-dependent reduction of AKT, p-AKT, P-PRAS40 (T246), and P-S6 (S240/244) protein levels: BT474 cells, 1 μM
Experimental: (§1) Cells were lysed in 2× sample buffer (125 mM Tris-HCl at pH 6.8, 10% βME, 2% SDS, 20% glycerol, 0.05% Bromophenol Blue, 8 M urea). Protein lysates were loaded into 4-12% Bis-Tris gels and resolved by electrophoresis. Samples were then blotted on PVDF membrane (Millipore IPVH00010) using the wet transfer technique (Invitrogen). Membranes were blocked in 5% milk-TBST for 1 hour, washed in TBST for 10 min, and incubated in primary antibody in 5% milk-TBST or 5% BSA-TBST at 4° C. for 16 h. Membranes were rinsed (3×6 min) in TBST and incubated in horseradish peroxidase-conjugated secondary antibodies in 5% milk-TBST for 1 hour and rinsed again in TBST (3×6 min). Membranes were visualized using the chemiluminescence system (Thermo 34080, 37075) on autoradiography film (Denville E3018). Primary Antibodies: R-actin (Sigma A5316), p-AKT (Ser473 CST-9721), total AKT (CST-9272), p-S6 (Ser240/244, CST-5364), p-PRAS40 (Thr246, CST-2997). Secondary Antibodies: Mouse (Thermo 31432), Rabbit (Thermo 31460).

AKT [2] = assay: Western blot of AKT protein levels and downstream signaling in BT474 cells; assay type: cell-based, human; settings: for suppression of AKT protein level and AKT activity: Western blot (FIGS. 1, 3, 4)
Outline: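 Lysates were immunoblotted with chemiluminescent detection for p-AKT Ser473, total AKT, p-S6 Ser240/244 and p-PRAS40 Thr246, using actin as loading control.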

AKT [3] = assay: Western blot of AKT protein levels in PC-3 cells; assay type: cell-based, human; settings: 0.3 μM, 1 μM, 3 μM, or 10 μM for 24 h (FIG. 4B)
Experimental: PC-3, U87MG, HCC1143, MDA-MB-231, MDA-MB-468, BT474 and MCF-7 cell lines were purchased from ATCC. Cell lines were regularly tested in the lab for mycoplasma. All cells were cultured at 37° C. and 5% CO2. PC-3, U87MG, MDA-MB-231, MCF-7 and BT474 cells were cultured in 1×DMEM (Corning, 10-013-CV) with 10% fetal bovine serum (Atlanta Biologicals S11150) and 1× Penicillin/Streptomycin. HCC1143 cells were cultured in RPMI (Corning, 10-040-CV) medium with 10% fetal bovine serum (Atlanta Biologicals S11150) and 1× Penicillin/Streptomycin. Cells were split using 0.05% or 0.25% trypsin (Corning 25-051-Cl or 25-053-Cl, respectively) before they reached full confluence and media was changed every 3-4 days. Cells were treated with compounds individually at different concentrations for 24 hrs. Cells were treated with DMSO, VHL, or PML alone as controls.
as §1

AKT [4] = assay: Western blot of AKT protein levels in U87MG cells; assay type: cell-based; settings: 0.3 μM, 1 μM, 3 μM, or 10 μM for 24 h
Experimental: as §1

AKT [5] = assay: Western blot of AKT protein levels in MDA-MB-468 cells; assay type: cell-based; settings: 0.3 μM, 1 μM, 3 μM, or 10 μM for 24 h
Experimental: as §1

PC-3 cells [6] = assay: Cell proliferation (IncuCyte live cell imaging) in PC-3 cells; assay type: cell-based, human; settings: PC-3 cells (FIG. 7)
Experimental: (§2) 1-3×10^3 PC-3 or MDA-MB-468 cells were seeded in 96-well plates in triplicates and treated at the indicated compound concentrations. Cells were monitored using the IncuCyte® live cell imaging system (Essen Bioscience™, Ann Arbor, Mich.) which was placed in a cell culture incubator operated at 37° C. and 5% CO2. Cell confluence was determined using calculations derived from phase-contrast images. The concentration for 50% of maximal inhibition of cell proliferation (GI50) values were determined by fitting to a standard four-parameter logistic using GraphPad Prism® v5.
(§3) Experiments were carried out in 96-well plates in triplicates. A total of 1-3×10^3 cells per well were grown in the presence of 1 μM of AZD5363 (Selleckchem), 1 μM of selected degrader compounds. Cells were then monitored for 3-4 days using the IncuCyte live cell imaging system (Essen BioScience, Ann Arbor, Mich., USA), which was placed in a cell culture incubator operated at 37° C. and 5% CO2. Cell confluence was determined using calculations derived from phase-contrast images. For measurement of cell death DRAQ7 (Cell Signaling #7406) at 1.5 μM was included in the medium and apoptotic red counts were measured in IncuCyte™ FLR automated incubator microscope.

PC-3 cells [7] = assay: Colony formation (Crystal Violet) in PC-3 cells; assay type: cell-based, human; settings: 0.1-10 μM for 2 weeks (FIG. 8)
Experimental: (§4) PC-3, MDA-MB-468, HCC1143, and MDA-MB-231 cells were treated with DMSO, AZD5363 or XF050-21 at 0.1 μM, 0.3 μM, 1 μM, 3 μM, or 10 μM for 2 weeks.
(§5) Cells were cultured for 12-17 days in the presence of different compounds. Media with compound was replenished every two days. At the end of the experiment, media was aspirated and viable cells were stained with 0.5% crystal violet dye.

MDA-MB-468 cells [8] = assay: Cell proliferation (IncuCyte live cell imaging) in MDA-MB-468 cells; assay type: cell-based; settings: MDA-MB-468 cells (FIG. 7)
Experimental: as §2, §3

AKT [9] = assay: Time course Western blot of AKT degradation in PC-3 cells; assay type: cell-based, human; settings: PC3 cells, 1 μM
Experimental: BT474 cells and PC-3 cells were treated with DMSO or the indicated compounds at a fixed concentration of 1 μM for 1, 2, 4, 8, 12, or 24 h. […] The maximum degradation of AKT and inhibition of downstream signaling were observed after 12 h of treatment in PC-3 cells (FIG. 5B).
as §1

MDA-MB-468 cells [10] = assay: Colony formation (Crystal Violet) in MDA-MB-468 cells; assay type: cell-based; settings: 0.1-10 μM for 2 weeks (FIG. 8)
Experimental: as §4, §5

MDA-MB-231 cells = assay: Colony formation (Crystal Violet) in MDA-MB-231 cells; assay type: cell-based; settings: 0.1-10 μM for 2 weeks (FIG. 8)
Experimental: as §4, §5

AKT [11] = assay: Combination of AKT degrader and mTOR inhibitor, Western blot in BT474 cells; assay type: cell-based, human; settings: 24 h, combined with an mTOR inhibitor (Torin1 or Rapamycin)
Experimental: as §1

[12] = Mouse PK study, plasma exposure; assay type: in vivo, Swiss Albino mice
Experimental: Standard PK studies were conducted using male Swiss Albino mice. A single 75 mg/kg intraperitoneal (IP) injection of XF050-21 was evaluated. Plasma concentrations of XF050-21 reported at each of the six time points (30 min, 1 h, 2 h, 4 h, 8 h, and 12 h post dosing) are the average values from 3 test animals.

AKT [13] = assay: Rescue of XF050-21 induced AKT degradation by pretreatment in BT474 cells; assay type: cell-based, human
Experimental: BT474 Cells were pre-treated with DMSO, VHL-1 (1 mM), MLN4924 (1 μM), MG-132 (20 μM) or AZD5363 (1 μM) for 2 h, before being treated with the 1 μM XF050-21 compounds for 24 h.
as §1

HCC1143 cells = assay: Colony formation (Crystal Violet) in HCC1143 cells; assay type: cell-based; settings: 0.1-10 μM for 2 weeks (FIG. 8)
Experimental: as §4, §5

[14] = tested on: colon cancer xenograft with RAS/RAF activation albeit with PIK3CA mutation; settings: alone; xenograft with RAS/RAF activation and PIK3CA mutation; cited from earlier work
[15] = phase I clinical trial (Saura et al., 2017); cited from earlier work

Cc1ncsc1-c1ccc(CNC(=O)[C@@H]2C[C@@H](O)CN2C(=O)[C@@H](NC(=O)CCCCCCCCCCNC(=O)CCNC[C@@H](C(=O)N2CCN(c3ncnc4c3[C@H](C)C[C@H]4O)CC2)c2ccc(Cl)cc2)C(C)(C)C)cc1 [XF038-166A, (2S,4R)-1-((S)-2-(11-(3-(((S)-2-(4-chlorophenyl)-3-(4-((5R,7R)-7-hydroxy-5-methyl-6,7-dihydro-5H-cyclopenta[d]pyrimidin-4-yl)piperazin-1-yl)-3-oxopropyl)amino)propanamido)undecanamido)-3,3-dimethylbutanoyl)-4-hydroxy-N-(4-(4-methylthiazol-5-yl)benzyl)pyrrolidine-2-carboxamide]
time point for the most significant AKT degradation (AKT [1]): 24 h
time-dependent reduction of AKT, p-AKT, P-PRAS40 (T246), and P-S6 (S240/244) protein levels (AKT [1]): time-dependently reduces
suppression of AKT protein level and AKT activity (AKT [2]): effective in suppressing both AKT protein level and AKT activity

NC1(C(=O)N[C@@H](CCO)c2ccc(Cl)cc2)CCN(c2ncnc3[nH]ccc23)CC1 [AZD5363, 4-amino-N-[(1S)-1-(4-chlorophenyl)-3-hydroxypropyl]-1-(7H-pyrrolo[2,3-d]pyrimidin-4-yl)piperidine-4-carboxamide, reference compound]
AKT protein levels (AKT [3]): no effect
pAKT levels (AKT [3]): increased
AKT protein levels (AKT [4]): no effect
pAKT levels (AKT [4]): increased
AKT protein levels (AKT [5]): no effect
pAKT levels (AKT [5]): increased
AKT protein levels (AKT [2]; 1 μM, 5 μM, or 10 μM for 24 h): no effect
pAKT levels (AKT [2]; 1 μM, 5 μM, or 10 μM for 24 h): increased
AKT protein levels (AKT [2]; 0.01-1 μM for 24 h (FIG. 4A)): no effect
pAKT levels (AKT [2]; 0.01-1 μM for 24 h (FIG. 4A)): increased

Cc1ncsc1-c1ccc(CNC(=O)[C@@H]2C[C@@H](O)CN2C(=O)[C@@H](NC(=O)CCCCCCCCCC(=O)N2CCN(CC[C@H](NC(=O)C3(N)CCN(c4ncnc5[nH]ccc45)CC3)c3ccc(Cl)cc3)CC2)C(C)(C)C)cc1 [XF050-21, 4-amino-N-((S)-1-(4-chlorophenyl)-3-(4-(11-(((S)-1-((2S,4R)-4-hydroxy-2-((4-(4-methylthiazol-5-yl)benzyl)carbamoyl)pyrrolidin-1-yl)-3,3-dimethyl-1-oxobutan-2-yl)amino)-11-oxoundecanoyl)piperazin-1-yl)propyl)-1-(7H-pyrrolo[2,3-d]pyrimidin-4-yl)piperidine-4-carboxamide]
AKT protein levels (AKT [3]): significantly reduced
cell proliferation inhibition compared with AZD5363 (PC-3 cells [6]): more effective than AZD5363; also recorded: better cell proliferation inhibition activity than AZD5363
AKT protein levels (AKT [4]): significantly reduced
colony formation inhibition compared with AZD5363 (PC-3 cells [7]): more effective in inhibiting cancer cell proliferation than AZD5363; also recorded: better colony formation inhibition than AZD5363
cell proliferation inhibition compared with AZD5363 (MDA-MB-468 cells [8]): more effective than AZD5363; also recorded: better cell proliferation inhibition activity than AZD5363
time-dependent reduction of AKT, p-AKT, P-PRAS40 (T246), and P-S6 (S240/244) protein levels (AKT [9]): time-dependently reduces
colony formation inhibition compared with AZD5363 (MDA-MB-468 cells [10]): more effective in inhibiting cancer cell proliferation than AZD5363; also recorded: better colony formation inhibition than AZD5363
time point for the most significant AKT degradation (AKT [1]): 24 h
time-dependent reduction of AKT, p-AKT, P-PRAS40 (T246), and P-S6 (S240/244) protein levels (AKT [1]): time-dependently reduce
AKT protein levels (AKT [5]): significantly reduced
colony formation inhibition compared with AZD5363 (MDA-MB-231 cells): more effective in inhibiting cancer cell proliferation than AZD5363; also recorded: better colony formation inhibition than AZD5363
AKT protein levels and downstream signaling under combination treatment (AKT [11]): reduced AKT protein levels and inhibited downstream signaling; also recorded: significantly reduced the AKT protein levels and AKT downstream signaling
clinical observations during PK study ([12]; male Swiss Albino mice, single 75 mg/kg IP): no abnormal clinical observations noted
bioavailability in mice ([12]; single 75 mg/kg IP injection, plasma): Bioavailable
mechanism of induced AKT protein degradation (AKT [13]): mediated by hijacking the E3 ubiquitin ligase VHL
rescue of AKT degradation by pretreatment (AKT [13]; 2 h pretreatment with VHL-1, MLN4924, MG-132 or AZD5363, then 1 μM XF050-21 for 24 h): can be rescued by VHL-1, MLN4924, MG-132 or AZD5363 pretreatment; also recorded: can be blocked by pretreatment of VHL-1, MLN4924, MG132, and AZD5363; also recorded: can be rescued by pretreatment of the cells with VHL-1, MLN4924, MG132 and AZD5363
suppression of AKT protein level and AKT activity (AKT [2]): effective in suppressing both AKT protein level and AKT activity
colony formation inhibition compared with AZD5363 (HCC1143 cells): more effective in inhibiting cancer cell proliferation than AZD5363; also recorded: better colony formation inhibition than AZD5363

CC(C)NC[C@@H](C(=O)N1CCN(c2ncnc3c2[C@H](C)C[C@H]3O)CC1)c1ccc(Cl)cc1 [GDC0068]
efficacy in colon cancer xenograft [14]: not very effective
objective tumor shrinkage [15]: failed to result in significant objective tumor shrinkage
